Numbered stars: 1 amine (or outer) side, 2 acyl side, 3 side chain; on linkers, the order of the positions; unused ones are H or OH. Bridge positions count the residues as written; N and C are the ends. Square brackets hold non-standard residues; d marks the D form. Peptide text beside a SMILES is read from it. Trp(2-yl) = O=C([C@H](Cc1c([*:3])[nH]c2ccccc12)N[*:1])[*:2]; Leu(4R-OH,5-OH) = C[C@](O)(CO)C[C@H](N)C(=O)O; cisHyp = O=C(O)[C@@H]1C[C@H](O)CN1
Molecular target: T1, G-actin (pyrene-labeled) (Oryctolagus cuniculus, UniProt P68135)
T1 construct: purchased Cytoskeleton, Inc., Colorado
Assay: In vitro polymerization of pyrene-labeled G-actin
Type: biochemical
Conditions: buffer G with 1 mM MgCl2; conjugate 50 μg/ml, phalloidin 4 μM
Procedure: In vitro polymerization of G-actin was performed according to the method of Maul and coworkers (Maul et al., 2003).
This in vitro assay is based on the enhanced fluorescence of pyrene-conjugated actin that occurs during polymerization in vitro.
For conducting the polymerization assay, general actin buffer containing pyrene actin and ATP was added to the wells. Then polymerization buffer, samples (P34 free peptide, P33 free peptide, P34BSA and P33BSA), and phalloidin (as positive control) were added to the wells. Then fluorescence intensity was read with a spectrophotometer (Excitation: 360 nm; Emission: 410 nm). The reading was done for 15 minutes with intervals of 30 seconds.
For the assay to determine inhibition of polymerization, all the wells contained polymerization buffer to initiate polymerization. […]
As mentioned above, in vitro polymerization of G-actin was performed according to the method of Maul and coworkers (Maul et al., 2003). […] 5 μl samples were applied on a microscope slide, and examined by fluorescence microscopy.
P34BSA was tested for the capacity to inhibit or induce actin polymerization. […] The fluorescence intensity of the mixture was read with a microplate fluorescence reader (FL600, Bio-Tek®; Ex. 360 nm, +/−20 nm bandwidth; Em. 410 nm, +/−10 nm bandwidth). The emissions were recorded for 15 min at 30 sec intervals. […]

C[C@@H]1NC(=O)[C@H](C[C@@](C)(O)CO)NC(=O)[C@@H]2Cc3c([nH]c4ccccc34)SC[C@H](NC(=O)[C@@H]([C@H](C)O)NC1=O)C(=O)N1C[C@@H](O)C[C@H]1C(=O)N[C@@H](C)C(=O)N2 [phalloidin] (cyclo(A[dT]C[cisHyp]A[Trp(2-yl)][Leu(4R-OH,5-OH)]); thioether 3-6)
induction of actin polymerization: able to promote polymerization
